Assay results taken from PubChem BioAssay AID1259407 (Chemical Carcinogenesis Research Information System (CCRIS), 2018).
Calls of active or inactive are those of the source. The rule behind the calls is not given here.

Tested on: CCRIS mutagenicity, Ames/micronucleus/aberration tests
Assay: CCRIS mutagenicity studies
[1] = Test System: AMES SALMONELLA TYPHIMURIUM, Strain/Indicator: TA98, Metabolic Activation: NONE, Method: PREINCUBATION
[2] = Test System: AMES SALMONELLA TYPHIMURIUM, Strain/Indicator: TA100, Metabolic Activation: NONE, Method: PREINCUBATION
[3] = Test System: AMES SALMONELLA TYPHIMURIUM, Strain/Indicator: TA100, Metabolic Activation: NONE, Method: STANDARD PLATE
[4] = Test System: AMES SALMONELLA TYPHIMURIUM, Strain/Indicator: TA1535, Metabolic Activation: NONE, Method: PREINCUBATION
[5] = Test System: AMES SALMONELLA TYPHIMURIUM, Strain/Indicator: TA1537, Metabolic Activation: NONE, Method: PREINCUBATION

NNc1ccccc1 was tested, and the mutagenic call (End Point: IN VITRO CHROMOSOMAL ABERRATIONS, Test System: CHL CELLS, Metabolic Activation: NONE) was “active; positive (structural changes)”, the mutagenic call (End Point: IN VITRO CHROMOSOMAL ABERRATIONS, Test System: CHL CELLS, Metabolic Activation: RAT, LIVER, S-9, SODIUM PHENOBARBITAL AND 5,6-BENZOFLAVONE) was “active; positive (structural changes); authors report equivocal results for ploidy chang” and the mutagenic call [1] was “active; positive”. The mutagenic call (Test System: AMES SALMONELLA TYPHIMURIUM, Strain/Indicator: TA98, Metabolic Activation: RAT LIVER S-9, PHENOBARBITAL AND BETA-NAPHTHOFLAVONE, Method: PREINCUBATION) was “active; positive”, the mutagenic call [2] was “inactive; negative” and the mutagenic call [3] was “active; positive”. For the same molecule, the mutagenic call (Test System: AMES SALMONELLA TYPHIMURIUM, Strain/Indicator: TA100, Metabolic Activation: RAT KIDNEY, MICROSOMES, Method: STANDARD PLATE) was “active; positive”, the mutagenic call (Test System: AMES SALMONELLA TYPHIMURIUM, Strain/Indicator: TA100, Metabolic Activation: RAT LIVER S-9, PHENOBARBITAL AND BETA-NAPHTHOFLAVONE, Method: PREINCUBATION) was “inactive; negative” and the mutagenic call (Test System: AMES SALMONELLA TYPHIMURIUM, Strain/Indicator: TA1530, Metabolic Activation: NONE, Method: STANDARD PLATE) was “active; positive”. For the same molecule, the mutagenic call [4] was “inactive; negative”, the mutagenic call (Test System: AMES SALMONELLA TYPHIMURIUM, Strain/Indicator: TA1535, Metabolic Activation: RAT LIVER S-9, PHENOBARBITAL AND BETA-NAPHTHOFLAVONE, Method: PREINCUBATION) was “inactive; negative” and the mutagenic call (Test System: AMES SALMONELLA TYPHIMURIUM, Strain/Indicator: TA1535, Metabolic Activation: RAT, LIVER, S-9, AROCLOR 1254, Method: PREINCUBATION) was “inactive; negative”. For the same molecule, the mutagenic call [5] was “active; positive”, the mutagenic call (Test System: AMES SALMONELLA TYPHIMURIUM, Strain/Indicator: TA1537, Metabolic Activation: RAT LIVER S-9, PHENOBARBITAL AND BETA-NAPHTHOFLAVONE, Method: PREINCUBATION) was “active; positive” and the mutagenic call (Test System: AMES SALMONELLA TYPHIMURIUM, Strain/Indicator: TA1537, Metabolic Activation: RAT, LIVER, S-9, AROCLOR 1254, Method: PREINCUBATION) was “active; positive”. For the same molecule, the mutagenic call (Test System: AMES SALMONELLA TYPHIMURIUM, Strain/Indicator: TA2638, Metabolic Activation: NONE, Method: STANDARD PLATE) was “active; positive”, the mutagenic call (Test System: E. COLI, Strain/Indicator: WP2 (PKM101), Metabolic Activation: NONE, Method: STANDARD PLATE) was “active; positive” and the mutagenic call (Test System: E. COLI, Strain/Indicator: WP2 UVRA (PKM101), Metabolic Activation: NONE, Method: STANDARD PLATE) was “active; positive”. For the same molecule, the mutagenic call (Test System: E.COLI, Strain/Indicator: WP2UVRA, Metabolic Activation: NONE, Method: PREINCUBATION) was “active; positive” and the mutagenic call (Test System: E.COLI, Strain/Indicator: WP2UVRA, Metabolic Activation: RAT LIVER S-9, PHENOBARBITAL AND BETA-NAPHTHOFLAVONE, Method: PREINCUBATION) was “active; positive”.

For C=COc1ccc([N+](=O)[O-])cc1, the mutagenic call (Test System: AMES SALMONELLA TYPHIMURIUM, Strain/Indicator: TA100(NR), Metabolic Activation: MOUSE, LIVER, S-13, Method: STANDARD PLATE) was “active; positive”, the mutagenic call (Test System: AMES SALMONELLA TYPHIMURIUM, Strain/Indicator: TA100(NR), Metabolic Activation: NONE, Method: PREINCUBATION) was “inactive; negative” and the mutagenic call (Test System: AMES SALMONELLA TYPHIMURIUM, Strain/Indicator: TA100(NR), Metabolic Activation: NONE, Method: STANDARD PLATE) was “inactive; negative”. The mutagenic call (Test System: AMES SALMONELLA TYPHIMURIUM, Strain/Indicator: TA100(NR), Metabolic Activation: RAT, LIVER, S-9, PCB, Method: PREINCUBATION) was “active; positive”, the mutagenic call (Test System: AMES SALMONELLA TYPHIMURIUM, Strain/Indicator: TA100, Metabolic Activation: MOUSE, LIVER, S-13, Method: STANDARD PLATE) was “active; positive” and the mutagenic call [2] was “active; positive”. The mutagenic call [3] was “active; positive”, the mutagenic call (Test System: AMES SALMONELLA TYPHIMURIUM, Strain/Indicator: TA100, Metabolic Activation: RAT, LIVER, S-9, PCB, Method: PREINCUBATION) was “active; positive” and the mutagenic call (Test System: AMES SALMONELLA TYPHIMURIUM, Strain/Indicator: TA1535, Metabolic Activation: MOUSE, LIVER, S-13, Method: STANDARD PLATE) was “active; positive”. The mutagenic call (Test System: AMES SALMONELLA TYPHIMURIUM, Strain/Indicator: TA1535, Metabolic Activation: NONE, Method: STANDARD PLATE) was “inactive; negative”.

For CCCC(=O)Nc1ncnc2c1ncn2[C@@H]1O[C@@H]2COP(=O)(O)O[C@H]2[C@H]1OC(=O)CCC, the mutagenic call [1] was “inactive; negative”, the mutagenic call (Test System: AMES SALMONELLA TYPHIMURIUM, Strain/Indicator: TA98, Metabolic Activation: RAT, LIVER, S-9, KC-500, Method: PREINCUBATION) was “inactive; negative” and the mutagenic call [2] was “inactive; negative”. For the same molecule, the mutagenic call (Test System: AMES SALMONELLA TYPHIMURIUM, Strain/Indicator: TA100, Metabolic Activation: RAT, LIVER, S-9, KC-500, Method: PREINCUBATION) was “inactive; negative”, the mutagenic call [4] was “inactive; negative” and the mutagenic call (Test System: AMES SALMONELLA TYPHIMURIUM, Strain/Indicator: TA1535, Metabolic Activation: RAT, LIVER, S-9, KC-500, Method: PREINCUBATION) was “inactive; negative”. For the same molecule, the mutagenic call [5] was “inactive; negative”, the mutagenic call (Test System: AMES SALMONELLA TYPHIMURIUM, Strain/Indicator: TA1537, Metabolic Activation: RAT, LIVER, S-9, KC-500, Method: PREINCUBATION) was “inactive; negative” and the mutagenic call (Test System: AMES SALMONELLA TYPHIMURIUM, Strain/Indicator: TA1538, Metabolic Activation: NONE, Method: PREINCUBATION) was “inactive; negative”. The mutagenic call (Test System: AMES SALMONELLA TYPHIMURIUM, Strain/Indicator: TA1538, Metabolic Activation: RAT, LIVER, S-9, KC-500, Method: PREINCUBATION) was “inactive; negative”, the mutagenic call (Test System: E. COLI, Strain/Indicator: WP2 UVRA, Metabolic Activation: NONE, Method: PREINCUBATION) was “inactive; negative” and the mutagenic call (Test System: E. COLI, Strain/Indicator: WP2 UVRA, Metabolic Activation: RAT, LIVER, S-9, KC-500, Method: PREINCUBATION) was “inactive; negative”.

In the case of O=[N+]([O-])c1cccc(S(=O)(=O)O)c1, the mutagenic call [1] is reported as “inactive; negative”, the mutagenic call (Test System: AMES SALMONELLA TYPHIMURIUM, Strain/Indicator: TA98, Metabolic Activation: RAT, LIVER, S-9, KANECHLOR 500, Method: PREINCUBATION) is reported as “inactive; negative” and the mutagenic call [2] is reported as “inactive; negative”. The mutagenic call (Test System: AMES SALMONELLA TYPHIMURIUM, Strain/Indicator: TA100, Metabolic Activation: RAT, LIVER, S-9, KANECHLOR 500, Method: PREINCUBATION) was “inactive; negative”.

For CCCC(=O)Nc1ccc(OCC(O)CNC(C)C)c(C(C)=O)c1 (centres undefined), the mutagenic call (Test System: AMES SALMONELLA TYPHIMURIUM, Strain/Indicator: TA98, Metabolic Activation: NONE) was “inactive; negative”, the mutagenic call (Test System: AMES SALMONELLA TYPHIMURIUM, Strain/Indicator: TA98, Metabolic Activation: NONE, Method: STANDARD PLATE) was “inactive; negative” and the mutagenic call (Test System: AMES SALMONELLA TYPHIMURIUM, Strain/Indicator: TA98, Metabolic Activation: RAT, LIVER, S-9, AROCLOR 1254) was “inactive; negative”. For the same molecule, the mutagenic call (Test System: AMES SALMONELLA TYPHIMURIUM, Strain/Indicator: TA98, Metabolic Activation: RAT, LIVER, S-9, AROCLOR 1254, Method: STANDARD PLATE) was “inactive; negative”, the mutagenic call (Test System: AMES SALMONELLA TYPHIMURIUM, Strain/Indicator: TA100, Metabolic Activation: NONE) was “inactive; negative” and the mutagenic call [3] was “inactive; negative”. The mutagenic call (Test System: AMES SALMONELLA TYPHIMURIUM, Strain/Indicator: TA100, Metabolic Activation: RAT, LIVER, S-9, AROCLOR 1254) was “inactive; negative”, the mutagenic call (Test System: AMES SALMONELLA TYPHIMURIUM, Strain/Indicator: TA100, Metabolic Activation: RAT, LIVER, S-9, AROCLOR 1254, Method: STANDARD PLATE) was “inactive; negative” and the mutagenic call (Test System: AMES SALMONELLA TYPHIMURIUM, Strain/Indicator: TA1535, Metabolic Activation: NONE) was “inactive; negative”. The mutagenic call (Test System: AMES SALMONELLA TYPHIMURIUM, Strain/Indicator: TA1535, Metabolic Activation: RAT, LIVER, S-9, AROCLOR 1254) was “inactive; negative”, the mutagenic call (Test System: AMES SALMONELLA TYPHIMURIUM, Strain/Indicator: TA1537, Metabolic Activation: NONE) was “inactive; negative” and the mutagenic call (Test System: AMES SALMONELLA TYPHIMURIUM, Strain/Indicator: TA1537, Metabolic Activation: RAT, LIVER, S-9, AROCLOR 1254) was “inactive; negative”.

CC(=O)Oc1ccc2c(c1)OC1(C)OOC21C (centres undefined) was tested, and the mutagenic call [2] was “active; positive”.
